One series deals with Gallus gallus. To be noted: oral, diet.
Setting [1] is: subchronic, duration: 42 days, oral, gavage, M/F, body weight.
Where [2] appears, read: subchronic, duration: 90 days, oral, diet, M/F, Sprague-Dawley, no effects.
Setting [3] is: subchronic, duration: 13 weeks, oral, diet, M/F, no effects.
Setting [4] is: subchronic, duration: 90 days, oral.

The structures appear in SMILES notation.

For the molecule `CCC(=O)CC(C)CC` (stereo not drawn) [5-Methyl-3-heptanone], the NOAEL in the series with Rattus norvegicus (subchronic, duration: 13 weeks, oral, gavage, M, Sprague-Dawley, behavior) amounted to 82 mg/kg-day; in the series with Rattus norvegicus (subchronic, duration: 13 weeks, oral, gavage, M, Sprague-Dawley, clinical signs), 82 mg/kg-day; in the series on Rattus norvegicus (subchronic, duration: 13 weeks, oral, gavage, M, behavior), 82 mg/kg-day; in the series on Rattus norvegicus (subchronic, duration: 13 weeks, oral, gavage, M, neurology), 82 mg/kg-day.
In the case of `CCC(CC)C(=O)O` [2-Ethylbutyric acid], the NOAEL was 200 mg/kg-day in the series on Rattus norvegicus (reproduction developmental, duration: 10 days, oral, gavage, F, Sprague-Dawley, no effects) and 200 mg/kg-day in the series on Rattus norvegicus (reproduction developmental, duration: 10 days, oral, gavage, F, no effects).
In the case of `CC(=O)OC1(C)CCCC(C)(C)C12CCC(C)O2` (stereo not drawn) [6-Acetoxydihydrotheaspirane], in the series with Rattus norvegicus (subchronic, duration: 90 days, oral, diet, M/F, Crj:CD, food efficiency), the NOAEL amounted to 52 mg/kg-day.
Turning to `COC(=O)CSCc1ccco1` [Methyl {[(furan-2-yl)methyl]sulfanyl}acetate], in the series with Rattus norvegicus (subchronic, duration: 90 days, oral, diet, M/F, clinical chemistry), the NOAEL is 5.78 mg/kg-day.
`CC(=O)NCCS(=O)(=O)O.CC(=O)NCCS(=O)(=O)O.[Mg]` returned a no-observed-adverse-effect level (NOAEL) in the series on Rattus norvegicus (subchronic, duration: 13 weeks, oral, gavage, M/F, Crj:CD, no effects) of 1000 mg/kg-day.
In the series on Rattus norvegicus (setting [1]), `COc1ccc(COC(C)=O)cc1` [4-Methoxybenzyl acetate] displayed an NOAEL of 20 mg/kg-day.
Still for that read-out and setting: with `COc1ccc(C=O)cc1` [4-Methoxybenzaldehyde] the figure was 20 mg/kg-day.
`C[N+](C)(C)[C@@H](Cc1c[nH]c(=S)[nH]1)C(=O)[O-]` [Ergothioneine] displayed an NOEL with Rattus norvegicus (reproduction developmental, duration: 13 weeks, oral, diet, M/F, Sprague-Dawley, no effects) of 725 mg/kg-day. This molecule yielded a no-observed-adverse-effect level (NOAEL) in the series with Rattus norvegicus (short-term, duration: 28 days, oral, gavage, M/F, Sprague-Dawley, hematological) of 800 mg/kg-day.
In the series with Rattus norvegicus (short-term, duration: 28 days), `CC(C)(C)c1ccc(CC#N)cc1` [(4-tert-Butylphenyl)acetonitrile] showed an NOAEL of 6.5 mg/kg-day.
The molecule `COc1ccc(O)c(C(C)(C)C)c1` [Butylated hydroxyanisole] returned an NOAEL in the series with Rattus norvegicus (developmental, oral, Sprague-Dawley, development) of 100 mg/kg-day.
In the case of `C/C=C/C=C/C=O` [(2E,4E)-2,4-Hexadienal], the NOAEL in the series on Rattus norvegicus (chronic, duration: 14 weeks, oral, gavage, M/F, body weight) came to 15 mg/kg-day.
Molecule `CC1(O)CSC(C)(O)CS1` (stereo not drawn) [2,5-Dimethyl-1,4-dithiane-2,5-diol] showed a no observed adverse effect level (NOAEL) with Rattus norvegicus (setting [2]) of 3.14 mg/kg-day.
On to `CC(=O)C1=NCCS1` [2-Acetyl-2-thiazoline], for which the no-observed-adverse-effect level (NOAEL) in the series with Rattus norvegicus (subchronic, duration: 90 days) is 1.8 mg/kg-day; in the series with Rattus norvegicus (subchronic, duration: 90 days, oral, diet, M/F, no effects), 1.8 mg/kg-day.
For the molecule `C=CC(C)(O)C/C=C/C(=C)C` (stereo not drawn) [(E)-3,7-Dimethylocta-1,5,7-trien-3-ol], in the series with Rattus norvegicus (setting [2]), the NOAEL is 44 mg/kg-day.
Molecule `SCCc1cnccn1` [Pyrazineethanethiol] registered an NOAEL in the series on Rattus norvegicus (setting [3]) of 1.63 mg/kg-day.
In turn, `O=C(O)c1cc(=O)[nH]c(=O)[nH]1` [Orotic acid] displayed an NOAEL in the series on Rattus norvegicus (chronic, duration: 20 weeks, oral, diet, histopathology: neoplastic) of 50 mg/kg-day.
`Cc1nc2cccc(OCC(C)(C)C(=O)NC(C)C)c2c(N)c1C(=O)O`: the NOAEL in the series with Rattus norvegicus (reproduction developmental, oral, gavage, F, Crj:CD, no effects) is 1000 mg/kg-day; with Rattus norvegicus (subchronic, duration: 13 weeks, oral, diet, M/F, Crj:CD, no effects), 100 mg/kg-day.
In the series on Rattus norvegicus (setting [2]), `CSCSCSC` [2,4,6-Trithiaheptane] came in with a no-observed-adverse-effect level (NOAEL) of 0.2 mg/kg-day.
In turn, `C[n+]1cccc(C(=N)[O-])c1.Cl` yielded an NOAEL with Rattus norvegicus (chronic, duration: 91 days, oral, gavage, M/F, clinical chemistry) of 250 mg/kg-day.
For the molecule `CC(C)SSSC(C)C` [Diisopropyl trisulfide], the NOEL in the series on Rattus norvegicus (subchronic, duration: 13 weeks, oral, gavage) amounted to 4.8 mg/kg-day.
Molecule `CCCCCC1CC=CC(=O)O1` (stereo not drawn) [6-Pentyl-5,6-dihydro-2H-pyran-2-one] yielded an NOAEL with Rattus norvegicus (subchronic, duration: 90 days) of 12.1 mg/kg-day.
With `[Na+].[Na+].[O-]B1OB2OB([O-])OB(O1)O2` [Sodium tetraborate (Na2B4O7)], in the series with Rattus norvegicus (developmental, duration: 20 days, F, Sprague-Dawley, development), the NOAEL was found to be 55 mg/kg-day.
In the series with Rattus norvegicus (chronic, duration: 2 years, oral, gavage, M/F, Fischer 344, organ weight), `CC(C)(c1ccc(OCC2CO2)cc1)c1ccc(OCC2CO2)cc1` (stereo not drawn) [Bisphenol A diglycidyl ether] returned a no observed adverse effect level (NOAEL) of 15 mg/kg-day.
For `C[C@@H]1O[C@@H](O[C@H]2[C@H](Oc3cc(O)c4c(c3)O[C@H](c3ccc(O)cc3)CC4=O)O[C@H](CO)[C@@H](O)[C@@H]2O)[C@H](O)[C@H](O)[C@H]1O` [Naringin], the NOAEL in the series with Rattus norvegicus (chronic, duration: 400 days, oral, diet, food consumption) was 1250 mg/kg-day.
The molecule `CCSC(C)=O` [S-Ethyl thiolacetate] registered an NOEL in the series on Rattus norvegicus (subchronic, duration: 13 weeks, oral, diet) of 6.5 mg/kg-day.
In the case of `C=CCSC(=O)CCCCC` [Allyl thiohexanoate], in the series with Rattus norvegicus (setting [4]), the NOAEL was determined as 6.63 mg/kg-day.
`COc1cc(S(=O)(=O)[O-])c(C)cc1N=Nc1c(O)ccc2cc(S(=O)(=O)[O-])ccc12.[Na+].[Na+]`: the NOAEL in the series on Rattus norvegicus (chronic, oral, M/F, body weight) was 701 mg/kg-day; in the series with Rattus norvegicus (developmental, M, development), 701 mg/kg-day; in the series with Rattus norvegicus (reproduction developmental, growth) it was 695 mg/kg-day; in the series with Rattus norvegicus (reproduction developmental, oral, M/F, growth), 695 mg/kg-day.
Regarding `CCCCOC(=O)c1ccccc1C(=O)OCCCC` [Dibutyl 1,2-benzenedicarboxylate], the LOAEL with Rattus norvegicus (reproduction developmental, oral, F, histopathology: nonneoplastic) is 2 mg/kg-day.
Take `CCN(Cc1cccc(S(=O)(=O)[O-])c1)c1ccc(C(=C2C=CC(=[N+](CC)Cc3cccc(S(=O)(=O)[O-])c3)C=C2)c2ccccc2S(=O)(=O)[O-])cc1.[Na+].[Na+]` [FD&C Blue No. 1]: the no-observed-adverse-effect level (NOAEL) in the series with Rattus norvegicus (chronic, duration: 30 months, oral, diet, M/F, mortality) amounted to 631 mg/kg-day; in the series on Rattus norvegicus (chronic, other), 631 mg/kg-day.
With `CNc1ccccc1C(=O)OC` [Methyl N-methylanthranilate], in the series with Rattus norvegicus (subchronic, duration: 90 days, organ weight), the no-observed-adverse-effect level (NOAEL) turned out to be 20 mg/kg-day.
Turning to `C=CC(C)(O)CCC=C(C)C` (stereo not drawn) [Linalool], the NOAEL in the series with Rattus norvegicus (short-term, duration: 28 days, oral, M/F, histopathology: nonneoplastic) was found to be 117 mg/kg-day.
Turning to `CN(C)CC(=O)O.[H-].[Na+]` [Sodium N,N-dimethylglycinate], the LEL in the series on Gallus gallus (subchronic, duration: 39 days, M/F, food consumption) stood at 10000 mg/kg-day.
`CC1OCCC12SC1CCOC1(C)S2` (stereo not drawn) returned an NOAEL with Rattus norvegicus (subchronic, duration: 90 days, oral, diet, M, hematological) of 25 mg/kg-day.
`O=C1OC(=O)C2C3C=CC(C3)C12` (stereo not drawn) [2-Norbornene-5,6-dicarboxylic anhydride]: the no observed adverse effect level (NOAEL) in the series with Rattus norvegicus (subchronic, duration: 90 days, oral, gavage, M/F, body weight) amounted to 250 mg/kg-day.
`CS(C)=O` [Dimethyl sulfoxide] had an NOAEL in the series with Rattus norvegicus (repeat dose other, oral, gavage, F, no effects) of 1000 mg/kg-day.
For `CCCCCCCCCCCC(=O)N[C@@H](CCCN=C(N)N)C(=O)OCC.Cl` [Ethyl-N2-dodecanoyl-L-argininate hydrochloride], the NOAEL with Rattus norvegicus (subchronic, duration: 13 weeks, oral, M/F, Sprague-Dawley, clinical chemistry) was determined as 47 mg/kg-day.
In the series on Rattus norvegicus (subchronic, duration: 90 days, oral, diet, M/F, Crj:CD, clinical chemistry), `O=C(/C=C/C=C/c1ccc2c(c1)OCO2)N1CCCCC1` [Piperine] gave an NOAEL of 5 mg/kg-day.
Take `Cc1occc1SSc1ccoc1C` [Bis(2-methyl-3-furyl)disulfide]: the NOAEL with Rattus norvegicus (subchronic, duration: 90 days, oral, diet, M/F, Wistar, no effects) turned out to be 0.45 mg/kg-day; in the series on Rattus norvegicus (subchronic, duration: 90 days, oral, diet, Wistar, no effects) it was 0.45 mg/kg-day.
With `O=C1O[C@H]([C@H](O)CO)C([O-])=C1O.[Na+]` [Sodium erythorbate], in the series on Rattus norvegicus (chronic, duration: 2 years, oral, drinking water, M/F, Fischer 344, body weight), the no observed adverse effect level (NOAEL) stood at 650 mg/kg-day.
As to `NCCCC[C@H](N)C(=O)O.O=S(=O)(O)O` [L-Lysine sulphate], the LEL in the series on Rattus norvegicus (subchronic, duration: 90 days, oral, gavage, M/F, Sprague-Dawley, histopathology: neoplastic) is 1000 mg/kg-day.
In the series with Rattus norvegicus (subchronic, duration: 90 days, clinical chemistry), `C=CCc1cc(OC)c(O)c(OC)c1` [4-Allyl-2,6-dimethoxyphenol] had an NOAEL of 300 mg/kg-day.
In the series with Rattus norvegicus (setting [4]), `CSc1ccccc1` [Benzene, (methylthio)-] came in with an NOAEL of 0.43 mg/kg-day.
On to `CSc1cnccn1` [Pyrazinyl methyl sulfide], for which, in the series on Rattus norvegicus (setting [3]), the NOAEL amounted to 1.63 mg/kg-day.
`CCOC(OCC)c1ccco1` [Furan, 2-(diethoxymethyl)-]: the NOEL in the series on Rattus norvegicus (subchronic, duration: 90 days, oral, diet, M/F, Fischer 344, hematological) turned out to be 54 mg/kg-day.
Turning to `COc1ccccc1C=O` [2-Methoxybenzaldehyde], the NOAEL with Rattus norvegicus (subchronic, duration: 49 days, oral, gavage, histopathology: nonneoplastic) turned out to be 10 mg/kg-day.
`NCC(=O)[O-].NCC(=O)[O-].[Fe+2]` [Ferrous bisglycinate] returned an LD50 in the series on Rattus norvegicus (acute, oral, M/F, mortality) of 2800 mg/kg-day. The molecule also registered a no-observed-adverse-effect level (NOAEL) with Rattus norvegicus (subchronic, duration: 13 weeks, oral, Sprague-Dawley, no effects) of 500 mg/kg-day.
`CCC/C=C/C=O` [(2E)-2-Hexenal] registered a no-observed-adverse-effect level (NOAEL) in the series on Rattus norvegicus (setting [3]) of 257 mg/kg-day.
The molecule `COC(=O)c1cc(Cl)ccc1Cl` [Methyl 2,5-dichlorobenzoate] had an NOAEL in the series on Rattus norvegicus (short-term, duration: 28 days, oral, clinical signs) of 100 mg/kg-day.
As for `CC(O)C(=O)NCCc1ccc(O)cc1` (stereo not drawn) [2-Hydroxy-N-[2-(4-hydroxyphenyl)ethyl]propanimidic acid], in the series on Rattus norvegicus (subchronic, duration: 90 days, oral, M/F), the no observed adverse effect level (NOAEL) was 8.4 mg/kg-day.
In the case of `C=CC(=C)CCC=C(C)C` [Myrcene], the no-observed-adverse-effect level (NOAEL) in the series on Rattus norvegicus (setting [2]) worked out at 44 mg/kg-day.
Molecule `C=CCSCC=C` [1-Propene, 3,3'-thiobis-] returned an NOAEL in the series with Rattus norvegicus (chronic, duration: 14 weeks, oral, gavage, M/F, Wistar, no effects) of 250 mg/kg-day.
On to `C=O` [Formaldehyde], for which the NOAEL in the series with Rattus norvegicus (chronic, duration: 104 weeks, oral, drinking water, M/F, Wistar, histopathology: nonneoplastic) worked out at 15 mg/kg-day. The molecule further registered an LEL in the series on Gallus gallus (short-term, duration: 28 days, no effects) of 990 mg/kg-day.
Turning to `CC(C=O)c1ccccc1` (stereo not drawn) [Hydratropaldehyde], the NOAEL with Rattus norvegicus (chronic, duration: 15 weeks, oral, gavage, M/F, organ weight) turned out to be 50 mg/kg-day.
Regarding `Cc1sc2nc(=O)[nH]c(N)c2c1C.Cl`, the NOAEL with Rattus norvegicus (subchronic, duration: 13 weeks, oral, diet, M/F, Sprague-Dawley, no effects) amounted to 60 mg/kg-day.
Take `O=Cc1ccc2c(c1)OCO2` [Piperonal]: in the series with Rattus norvegicus (chronic, duration: 2 years), the NOAEL worked out at 250 mg/kg-day.
For `CCOc1cc(C=O)ccc1O` [3-Ethoxy-4-hydroxybenzaldehyde], the no-observed-adverse-effect level (NOAEL) in the series with Rattus norvegicus (chronic, duration: 14 weeks) was determined as 500 mg/kg-day.
Molecule `C=CCCN=C=S` [3-Butenyl isothiocyanate] gave a no observed adverse effect level (NOAEL) with Rattus norvegicus (chronic, duration: 721 days, oral, gavage, M/F, histopathology: neoplastic) of 12 mg/kg-day.
In the case of `NC(=O)Cc1cccc2ccccc12` [1-Naphthaleneacetamide], the NOAEL is 15 mg/kg-day in the series on Rattus norvegicus (developmental, development) and 10 mg/kg-day in the series with Rattus norvegicus (subchronic, duration: 90 days, oral, hematological).

What is called NOAEL is the highest tested level that showed no adverse finding. A word on the LOAEL: it is the lowest dose or exposure tested at which an adverse effect was seen.

(Values after EPA's ToxValDB 9.5.)
